# Source: ChEMBL document CHEMBL4706710, “Synthesis and evaluation of novel thiosemicarbazone and semicarbazone analogs with both anti-proliferative and anti-metastatic activities against triple negative breast cancer” (Bioorg Med Chem, 2021)
# Activity calls are given as the source filed them. No cut-off for these calls is given here.
# How the values were obtained:
# MDA-MB-231 [1] = test: Antiproliferative activity against human MDA-MB-231 cells assessed as reduction in cell viability after 48 hrs by MTT assay; assay type: functional, cell-based; conditions: MDA-MB-231, 48 h
# A549 = test: Antiproliferative activity against human A549 cells assessed as reduction in cell viability after 48 hrs by MTT assay; assay type: functional, cell-based; conditions: A549, 48 h
# HT-29 = test: Antiproliferative activity against human HT-29 cells assessed as reduction in cell viability after 48 hrs by MTT assay; assay type: functional, cell-based; conditions: HT-29, 48 h
# MCF7 [2] = test: Antiproliferative activity against human MCF7 cells assessed as reduction in cell viability after 48 hrs by MTT assay; assay type: functional, cell-based; conditions: MCF7, 48 h
# MCF7 [3] = test: Potency index, ratio of hecogenin IC50 to test compound IC50 for antiproliferative activity against human MCF7 cells; assay type: functional
# MDA-MB-231 [4] = test: Potency index, ratio of hecogenin IC50 to test compound IC50 for antiproliferative activity against human MDA-MB-231 cells; assay type: functional
# HUVEC = test: Cytotoxicity against human HUVEC cells assessed as reduction in cell viability after 48 hrs by MTT assay; assay type: cell-based
# MDA-MB-231 [5] = test: Induction of apoptosis in human MDA-MB-231 cells assessed as necrotic cells at 10 uM after 3 hrs by annexin V-FITC/propidium iodide staining based flow cytometric analysis (reference value: 3%); assay type: functional
# MDA-MB-231 [6] = test: Induction of apoptosis in human MDA-MB-231 cells assessed as increase in early apoptotic cells at 10 uM by annexin V-FITC/propidium iodide staining based flow cytometric analysis; assay type: functional, cell-based; conditions: time 3-9 hrs, TDE = time-dependent effect
# MDA-MB-231 [7] = test: Induction of cell cycle arrest in human MDA-MB-231 cells assessed as accumulation at sub-G1 phase at 20 uM after 48 hrs by propidium iodide staining based flow cytometric analysis (reference value: 3.25%); assay type: functional
# MDA-MB-231 [8] = test: Induction of apoptosis in human MDA-MB-231 cells assessed as late apoptotic cells at 10 uM after 3 hrs by annexin V-FITC/propidium iodide staining based flow cytometric analysis (reference value: 3.1%); assay type: functional
# MDA-MB-231 [9] = test: Induction of apoptosis in human MDA-MB-231 cells assessed as increase in late apoptotic cells at 10 uM by annexin V-FITC/propidium iodide staining based flow cytometric analysis; assay type: functional, cell-based; conditions: time 3-9 hrs, TDE = time-dependent effect
# MDA-MB-231 [10] = test: Induction of apoptosis in human MDA-MB-231 cells assessed as late apoptotic cells at 10 uM after 9 hrs by annexin V-FITC/propidium iodide staining based flow cytometric analysis (reference value: 3.1%); assay type: functional
# MDA-MB-231 [11] = test: Induction of apoptosis in human MDA-MB-231 cells assessed as viable cells at 10 uM after 6 hrs by annexin V-FITC/propidium iodide staining based flow cytometric analysis (reference value: 91.2%); assay type: functional; conditions: read-out: Activity
# MDA-MB-231 [12] = test: Induction of cell cycle arrest in human MDA-MB-231 cells assessed as accumulation at sub-G1 phase at 40 uM after 48 hrs by propidium iodide staining based flow cytometric analysis (reference value: 3.25%); assay type: functional
# MDA-MB-231 [13] = test: Induction of apoptosis in human MDA-MB-231 cells assessed as viable cells at 10 uM after 3 hrs by annexin V-FITC/propidium iodide staining based flow cytometric analysis (reference value: 91.2%); assay type: functional; conditions: read-out: Activity
# MDA-MB-231 [14] = test: Induction of cell cycle arrest in human MDA-MB-231 cells assessed as accumulation at sub-G1 phase at 10 uM after 48 hrs by propidium iodide staining based flow cytometric analysis (reference value: 3.25%); assay type: functional
# MDA-MB-231 [15] = test: Induction of apoptosis in human MDA-MB-231 cells assessed as necrotic cells at 10 uM after 9 hrs by annexin V-FITC/propidium iodide staining based flow cytometric analysis (reference value: 3%); assay type: functional
# MDA-MB-231 [16] = test: Induction of cell cycle arrest in human MDA-MB-231 cells assessed as accumulation at sub-G1 phase after 48 hrs by propidium iodide staining based flow cytometric analysis; assay type: functional; conditions: dose 10-40 µM
# MDA-MB-231 [17] = test: Induction of apoptosis in human MDA-MB-231 cells assessed as necrotic cells at 10 uM after 6 hrs by annexin V-FITC/propidium iodide staining based flow cytometric analysis (reference value: 3%); assay type: functional
# MCF7 [18] = test: Induction of cell cycle arrest in human MCF7 cells assessed as accumulation at sub-G1 phase at 10 uM after 48 hrs by propidium iodide staining based flow cytometric analysis (reference value: 3.04%); assay type: functional
# MDA-MB-231 [19] = test: Induction of apoptosis in human MDA-MB-231 cells assessed as viable cells at 10 uM after 9 hrs by annexin V-FITC/propidium iodide staining based flow cytometric analysis (reference value: 91.2%); assay type: functional; conditions: read-out: Activity
# MDA-MB-231 [20] = test: Inhibition of cell migration in human MDA-MB-231 cells at 20 uM after 20 hrs by inverted microscopic method; assay type: functional, cell-based
# MCF7 [21] = test: Induction of cell cycle arrest in human MCF7 cells assessed as accumulation at sub-G1 phase after 48 hrs by propidium iodide staining based flow cytometric analysis; assay type: functional; conditions: dose 10-40 µM
# MCF7 [22] = test: Induction of cell cycle arrest in human MCF7 cells assessed as accumulation at sub-G1 phase at 20 uM after 48 hrs by propidium iodide staining based flow cytometric analysis (reference value: 3.04%); assay type: functional
# MDA-MB-231 [23] = test: Antiinvasive activity against in human MDA-MB-231 cells at 20 uM after 24 hrs by matrigel coated transwell assay; assay type: functional, cell-based
# MCF7 [24] = test: Induction of cell cycle arrest in human MCF7 cells assessed as accumulation at sub-G1 phase at 40 uM after 48 hrs by propidium iodide staining based flow cytometric analysis (reference value: 3.04%); assay type: functional
# MDA-MB-231 [25] = test: Induction of apoptosis in human MDA-MB-231 cells assessed as early apoptotic cells at 10 uM after 6 hrs by annexin V-FITC/propidium iodide staining based flow cytometric analysis (reference value: 2.7%); assay type: functional
# MDA-MB-231 [26] = test: Induction of apoptosis in human MDA-MB-231 cells assessed as early apoptotic cells at 10 uM after 3 hrs by annexin V-FITC/propidium iodide staining based flow cytometric analysis (reference value: 2.7%); assay type: functional
# MDA-MB-231 [27] = test: Induction of apoptosis in human MDA-MB-231 cells assessed as late apoptotic cells at 10 uM after 6 hrs by annexin V-FITC/propidium iodide staining based flow cytometric analysis (reference value: 3.1%); assay type: functional
# MDA-MB-231 [28] = test: Induction of apoptosis in human MDA-MB-231 cells assessed as early apoptotic cells at 10 uM after 9 hrs by annexin V-FITC/propidium iodide staining based flow cytometric analysis (reference value: 2.7%); assay type: functional
structure (smiles),measurement,setting,value
CC(=O)O[C@H]1CC[C@@]2(C)[C@@H](CC[C@H]3[C@@H]4CC=C(/C(C)=N/NC(=S)Nc5ccccc5C)[C@@]4(C)C(=O)C[C@@H]32)C1,IC50,MDA-MB-231 [1],14.1 µM
same,IC50,A549,17.1 µM
same,IC50,HT-29,13.2 µM
same,IC50,MCF7 [2],7.08 µM
CC(=O)O[C@H]1CC[C@@]2(C)[C@@H](CC[C@@H]3[C@@H]2CC(=O)N[C@]2(C)C(/C(C)=N/NC(=S)Nc4ccccc4C)=CC[C@@H]32)C1,IC50,MDA-MB-231 [1],> 40 µM
same,IC50,A549,> 40 µM
same,IC50,HT-29,37.5 µM
same,IC50,MCF7 [2],29.6 µM
CC(=O)O[C@H]1CC[C@@]2(C)[C@@H](CC[C@@H]3[C@@H]2CC(=O)N[C@]2(C)C(/C(C)=N/NC(=O)Nc4ccccc4)=CC[C@@H]32)C1,IC50,MDA-MB-231 [1],> 40 µM
same,IC50,A549,> 40 µM
same,IC50,HT-29,> 40 µM
same,IC50,MCF7 [2],35.8 µM
CC(=O)O[C@H]1CC[C@@]2(C)[C@@H](CC[C@@H]3[C@@H]2CC(=O)N[C@]2(C)C(/C(C)=N/NC(=S)Nc4ccc(C(F)(F)F)cc4)=CC[C@@H]32)C1,IC50,MDA-MB-231 [1],25.4 µM
same,IC50,A549,36.3 µM
same,IC50,HT-29,34.1 µM
same,IC50,MCF7 [2],22.7 µM
CC(=O)O[C@H]1CC[C@@]2(C)[C@@H](CC[C@H]3[C@@H]4CC=C(/C(C)=N/NC(N)=O)[C@@]4(C)C(=O)C[C@@H]32)C1,IC50,MDA-MB-231 [1],5.89 µM
same,Ratio IC50,MCF7 [3],>10
same,Ratio IC50,MDA-MB-231 [4],>10
same,IC50,HUVEC,> 100 µM
same,IC50,A549,6.84 µM
same,IC50,HT-29,7.69 µM
same,IC50,MCF7 [2],1.74 µM
CC(=O)O[C@H]1CC[C@@]2(C)[C@@H](CC[C@H]3[C@@H]4CC=C(/C(C)=N/NC(=S)Nc5ccc(C(F)(F)F)cc5)[C@@]4(C)C(=O)C[C@@H]32)C1,IC50,MDA-MB-231 [1],11.8 µM
same,IC50,A549,9.75 µM
same,IC50,HT-29,11.3 µM
same,IC50,MCF7 [2],6.86 µM
CC(=O)O[C@H]1CC[C@@]2(C)[C@@H](CC[C@@H]3[C@@H]2CC(=O)N[C@]2(C)C(/C(C)=N/NC(N)=O)=CC[C@@H]32)C1,IC50,MDA-MB-231 [1],19.2 µM
same,IC50,A549,29 µM
same,IC50,HT-29,28.5 µM
same,IC50,MCF7 [2],17.4 µM
CC(=O)O[C@H]1CC[C@@]2(C)[C@@H](CC[C@@H]3[C@@H]2CC(=O)N[C@]2(C)C(/C(C)=N/NC(=S)Nc4ccccc4)=CC[C@@H]32)C1,IC50,MDA-MB-231 [1],25.9 µM
same,IC50,A549,35.1 µM
same,IC50,HT-29,34 µM
same,IC50,MCF7 [2],19.1 µM
CC(=O)O[C@H]1CC[C@@]2(C)[C@@H](CC[C@H]3[C@@H]4CC=C(/C(C)=N/NC(=S)Nc5ccccc5)[C@@]4(C)C(=O)C[C@@H]32)C1,IC50,MDA-MB-231 [1],10.4 µM
same,Ratio IC50,MCF7 [3],>10
same,Ratio IC50,MDA-MB-231 [4],>10
same,IC50,A549,7.68 µM
same,IC50,HT-29,10.6 µM
same,IC50,MCF7 [2],2.16 µM
CC(=O)O[C@H]1CC[C@@]2(C)[C@@H](CC[C@H]3[C@@H]4CC=C(/C(C)=N/NC(N)=S)[C@@]4(C)C(=O)C[C@@H]32)C1,Activity,MDA-MB-231 [5],7.2%
same,Activity,MDA-MB-231 [6],Tde
same,Activity,MDA-MB-231 [7],39.79%
same,Activity,MDA-MB-231 [8],9.5%
same,Activity,MDA-MB-231 [9],Tde
same,Activity,MDA-MB-231 [10],15.2%
same,viability at 10 µM,MDA-MB-231 [11],74.1%
same,IC50,MDA-MB-231 [1],2.67 µM
same,Activity,MDA-MB-231 [12],54.95%
same,Ratio IC50,MCF7 [3],>10
same,viability at 10 µM,MDA-MB-231 [13],77.4%
same,Activity,MDA-MB-231 [14],14.82%
same,Activity,MDA-MB-231 [15],8.2%
same,Activity,MDA-MB-231 [16],Dose-dependent effect
same,Ratio IC50,MDA-MB-231 [4],>10
same,Activity,MDA-MB-231 [17],7.5%
same,Activity,MCF7 [18],25.52%
same,IC50,HUVEC,> 100 µM
same,viability at 10 µM,MDA-MB-231 [19],68.8%
same,IC50,A549,5.44 µM
same,inhibition,MDA-MB-231 [20],Active
same,IC50,HT-29,6.72 µM
same,IC50,MCF7 [2],1.59 µM
same,Activity,MCF7 [21],Dose-dependent effect
same,Activity,MCF7 [22],44.95%
same,Activity,MDA-MB-231 [23],Active
same,Activity,MCF7 [24],67.72%
same,Activity,MDA-MB-231 [25],6.3%
same,Activity,MDA-MB-231 [26],5.9%
same,Activity,MDA-MB-231 [27],12.1%
same,Activity,MDA-MB-231 [28],7.8%
C[C@@H]1CC[C@@]2(OC1)O[C@H]1C[C@H]3[C@@H]4CC[C@H]5C[C@@H](O)CC[C@]5(C)[C@H]4CC(=O)[C@]3(C)[C@H]1[C@@H]2C,IC50,MDA-MB-231 [1],31.2 µM
same,IC50,HUVEC,> 100 µM
same,IC50,A549,> 40 µM
same,IC50,HT-29,> 40 µM
same,IC50,MCF7 [2],28.7 µM
CC(=O)O[C@H]1CC[C@@]2(C)[C@@H](CC[C@@H]3[C@@H]2CC(=O)N[C@]2(C)C(/C(C)=N/NC(N)=S)=CC[C@@H]32)C1,IC50,MDA-MB-231 [1],16.6 µM
same,IC50,A549,28.9 µM
same,IC50,HT-29,27 µM
same,IC50,MCF7 [2],15.1 µM
CC(=O)O[C@H]1CC[C@@]2(C)[C@@H](CC[C@H]3[C@@H]4CC=C(/C(C)=N/NC(=O)Nc5ccccc5)[C@@]4(C)C(=O)C[C@@H]32)C1,IC50,MDA-MB-231 [1],15.5 µM
same,IC50,A549,22.7 µM
same,IC50,HT-29,17.6 µM
same,IC50,MCF7 [2],11.6 µM
